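Following 48 hours of exposure in 96-well plates, responses at five concentrations were used to interpolate endpoints linearly. GI50 is the concentration that inhibits growth by half. TGI: total growth inhibition.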
Columns and labels:
Assay in all cases: NCI-60 cell line screen, 48 h
PC-3 prostate = tested on: PC-3 prostate
U251 CNS = tested on: U251 CNS
SF-539 CNS = tested on: SF-539 CNS
SF-268 CNS = tested on: SF-268 CNS
SR leukemia = tested on: SR leukemia
BT-549 breast = tested on: BT-549 breast
SK-MEL-2 melanoma = tested on: SK-MEL-2 melanoma
MCF7 breast = tested on: MCF7 breast
SN12C renal = tested on: SN12C renal
SW-620 colon = tested on: SW-620 colon

## CN(C)CCCOc1ccc(NC2=C(Cl)C(=O)C(Nc3ccc(OCCCN(C)C)cc3)=C(Cl)C2=O)cc1
PC-3 prostate
  GI50: 1.23 µM
  TGI: 2.76 µM
U251 CNS
  GI50: 1.53 µM
  TGI: 2.94 µM
SF-539 CNS
  GI50: 1.79 µM
  TGI: 3.19 µM
SF-268 CNS
  GI50: 1.56 µM
  TGI: 3.17 µM
SR leukemia
  GI50: 0.312 µM
  TGI: 3.25 µM
BT-549 breast
  GI50: 1.71 µM
  TGI: 3.08 µM
SK-MEL-2 melanoma
  GI50: 1.66 µM
  TGI: 3.31 µM
MCF7 breast
  GI50: 0.15 µM
  TGI: 0.376 µM
SN12C renal
  GI50: 0.548 µM
  TGI: 1.05 µM
SW-620 colon
  GI50: 0.297 µM
  TGI: 0.809 µM

## Oc1cn(-c2ccc(Cl)cc2)nc1-c1n[nH]c(=S)n1-c1ccc(F)cc1
PC-3 prostate
  GI50: 14.8 µM
  TGI: > 100 µM
U251 CNS
  GI50: 15.8 µM
  TGI: > 100 µM
SF-539 CNS
  GI50: 15.1 µM
  TGI: 34.9 µM
SF-268 CNS
  GI50: 14.7 µM
  TGI: 70.8 µM
SR leukemia
  TGI: > 100 µM
BT-549 breast
  GI50: 16.5 µM
  TGI: 56.9 µM
SK-MEL-2 melanoma
  GI50: 34 µM
  TGI: > 100 µM
MCF7 breast
  GI50: 24.8 µM
  TGI: > 100 µM
SN12C renal
  GI50: 16.9 µM
  TGI: 50.3 µM
SW-620 colon
  GI50: 22.8 µM
  TGI: 78.3 µM

## OCc1ccc(-c2ccc(-c3ccc(CO)o3)o2)o1
PC-3 prostate
  GI50: > 100 µM
  TGI: > 100 µM
U251 CNS
  GI50: 39.1 µM
  TGI: > 100 µM
SF-539 CNS
  GI50: > 100 µM
  TGI: > 100 µM
SF-268 CNS
  GI50: > 61.7 µM
  TGI: > 100 µM
SR leukemia
  GI50: > 100 µM
  TGI: > 100 µM
BT-549 breast
  GI50: > 100 µM
  TGI: > 100 µM
SK-MEL-2 melanoma
  GI50: 38.8 µM
  TGI: 97.1 µM
MCF7 breast
  GI50: 16.7 µM
  TGI: > 100 µM
SN12C renal
  GI50: > 100 µM
  TGI: > 100 µM
SW-620 colon
  GI50: > 100 µM
  TGI: > 100 µM

## C[C@]12CCc3nc(Nc4ccc(O)cc4)sc3C1=CC[C@@H]1[C@@H]2CC[C@]2(C)/C(=N/NC(N)=S)CC[C@@H]12
PC-3 prostate
  GI50: 1.58 µM
  TGI: 5.28 µM
U251 CNS
  GI50: 1.29 µM
  TGI: 2.6 µM
SF-539 CNS
  GI50: 1.49 µM
  TGI: 3.09 µM
SF-268 CNS
  GI50: 1.34 µM
  TGI: 3.98 µM
SR leukemia
  GI50: 0.454 µM
  TGI: > 100 µM
BT-549 breast
  GI50: 1.47 µM
  TGI: 3.99 µM
SK-MEL-2 melanoma
  GI50: 1.69 µM
  TGI: 3.52 µM
MCF7 breast
  GI50: 1.15 µM
  TGI: 3.01 µM
SN12C renal
  GI50: 1.53 µM
  TGI: 3.37 µM
SW-620 colon
  GI50: 1.29 µM
  TGI: 3.26 µM

## C/C(=N\NC(=S)N1CCC1)c1ccccn1
PC-3 prostate
  TGI: > 100 µM
U251 CNS
  GI50: 0.00725 µM
  TGI: > 82.6 µM
SF-539 CNS
  GI50: 0.0629 µM
  TGI: 5.31 µM
SF-268 CNS
  GI50: 0.00557 µM
  TGI: > 100 µM
SR leukemia
  GI50: 0.00819 µM
BT-549 breast
  TGI: 73.3 µM
SK-MEL-2 melanoma
  TGI: 33.3 µM
MCF7 breast
  TGI: 0.00635 µM
SN12C renal
  GI50: 0.0289 µM
  TGI: > 100 µM
SW-620 colon
  GI50: 0.0367 µM
  TGI: > 100 µM

## Cc1ccc(C(=O)Nc2ccc(Oc3cc4cnn(C)c4cc3-c3cn[nH]c3)c(F)c2)c(=O)n1-c1ccc(F)cc1
PC-3 prostate
  GI50: 16.3 µM
  TGI: > 100 µM
U251 CNS
  GI50: 32.9 µM
  TGI: > 100 µM
SF-539 CNS
  GI50: 1.37 µM
  TGI: > 100 µM
SF-268 CNS
  GI50: 7.21 µM
  TGI: > 100 µM
SR leukemia
  GI50: > 38.8 µM
  TGI: > 100 µM
BT-549 breast
  GI50: 7.05 µM
  TGI: > 100 µM
SK-MEL-2 melanoma
  GI50: 18.1 µM
  TGI: > 100 µM
MCF7 breast
  GI50: 3.2 µM
  TGI: > 100 µM
SN12C renal
  GI50: 3.08 µM
  TGI: > 100 µM
SW-620 colon
  GI50: > 88.9 µM
  TGI: > 100 µM

## CCOC(=O)[C@@H](C)C[C@H](Cc1ccccc1)NC(=O)c1csc([C@@H](C[C@H](C(C)C)N(C)C(=O)CNC(=O)[C@H]2CCCCN2C)OC(C)=O)n1
PC-3 prostate
  GI50: 0.508 µM
  TGI: > 14.3 µM
U251 CNS
  GI50: 1 µM
  TGI: > 14.3 µM
SF-539 CNS
  GI50: 1.74 µM
  TGI: 5.46 µM
SF-268 CNS
  GI50: 4.89 µM
  TGI: > 14.3 µM
SR leukemia
  GI50: 0.145 µM
  TGI: > 14.3 µM
BT-549 breast
  GI50: 0.891 µM
  TGI: > 14.3 µM
SK-MEL-2 melanoma
  GI50: 0.69 µM
  TGI: > 14.3 µM
MCF7 breast
  GI50: 0.319 µM
  TGI: > 14.3 µM
SN12C renal
  GI50: 2.18 µM
  TGI: > 14.3 µM
SW-620 colon
  GI50: 0.733 µM
  TGI: > 14.3 µM

## COC(=O)c1ccc(NC(N)=NCCC(C)(C)c2ccc(C(F)(F)F)cc2)nc1
PC-3 prostate
  GI50: 3.91 µM
  TGI: 15.5 µM
U251 CNS
  GI50: 2.01 µM
  TGI: 3.89 µM
SF-539 CNS
  GI50: 1.74 µM
  TGI: 3.53 µM
SF-268 CNS
  GI50: 6.23 µM
  TGI: 24.8 µM
SR leukemia
  GI50: 0.892 µM
  TGI: 2.91 µM
BT-549 breast
  GI50: 4.85 µM
  TGI: 18.1 µM
SK-MEL-2 melanoma
  GI50: 3.22 µM
  TGI: 10.5 µM
MCF7 breast
  GI50: 1.7 µM
  TGI: 3.87 µM
SN12C renal
  GI50: 1.7 µM
  TGI: 3.25 µM
SW-620 colon
  GI50: 2.03 µM
  TGI: 4.19 µM

## CC(C)(C)O/N=C/c1cc(NC(=S)c2ccccc2)ccc1Cl
PC-3 prostate
  TGI: 46 µM
U251 CNS
  TGI: 45.5 µM
SF-539 CNS
  TGI: 71.4 µM
SF-268 CNS
  TGI: 58.5 µM
SR leukemia
  TGI: 47.2 µM
BT-549 breast
  TGI: 35.1 µM
SK-MEL-2 melanoma
  TGI: 39.6 µM
MCF7 breast
  TGI: > 100 µM
SN12C renal
  TGI: 26 µM
SW-620 colon
  TGI: 45.3 µM

From PubChem BioAssay (NCI)
